Some test systems named below: SK-MEL-5 melanoma; SR leukemia; NCI-H23 lung; M14 melanoma; NCI-H460 lung; UACC-62 melanoma; COLO 205 colon; BT-549 breast.
Holding throughout (assay): DTP human tumour cell line panel, 48 h

Drawing on PubChem BioAssay (NCI), this text covers TGI and GI50 for 27 molecules.

Each structure is given as a SMILES string.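 Results reflect a 48-hour exposure of cells in 96-well plates to compound at five concentrations. Abbreviation: GI50, concentration required for 50% inhibition of growth. TGI: total growth inhibition.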

`N/C(=N\C(=S)N1CCCCC1)N1CCCCC1`: the TGI in the assay with SK-MEL-5 melanoma, with SR leukemia, in the assay on NCI-H23 lung, in the assay with M14 melanoma, with NCI-H460 lung and in the assay on UACC-62 melanoma was over 100 µM each time.

For the molecule `Oc1cccc(C2SCc3nc4ccccc4n32)c1` (stereo unspecified), the TGI in the assay with SK-MEL-5 melanoma was 38.2 µM; with SR leukemia, over 100 µM; with NCI-H23 lung it was over 100 µM; with NCI-H460 lung, over 100 µM; in the assay with COLO 205 colon it was over 100 µM; in the assay with UACC-62 melanoma, over 100 µM.

In the case of `COc1ccc(-c2c(N)[n+]([O-])c3cc(C)c(C)cc3[n+]2[O-])cc1OC`, the TGI with SK-MEL-5 melanoma was 74.3 µM; in the assay on NCI-H23 lung it was over 100 µM; in the assay with M14 melanoma, over 100 µM; with NCI-H460 lung, over 100 µM; with COLO 205 colon, 50.3 µM; in the assay on UACC-62 melanoma, over 100 µM.

In the case of `O=C(O)C1Cc2nc[nH]c2CN1` (stereo unspecified), the TGI in the assay with SK-MEL-5 melanoma, in the assay on SR leukemia, in the assay on NCI-H23 lung, in the assay with M14 melanoma, in the assay with NCI-H460 lung and with COLO 205 colon was over 100 µM each time. In the assay on UACC-62 melanoma, the TGI is over 100 µM.

Regarding `COc1cc(C2C(C(=O)O)=C(C)Oc3cc4c(cc32)OCO4)cc(OC)c1OC` (stereo unspecified), the TGI in the assay on SK-MEL-5 melanoma is over 100 µM; in the assay on NCI-H23 lung, over 100 µM; in the assay on M14 melanoma, over 100 µM; in the assay on NCI-H460 lung, over 100 µM; with COLO 205 colon it was 60.6 µM; in the assay on UACC-62 melanoma it was over 100 µM.

For `Nc1nc(N)c(-c2ccccc2)c(C(=O)Nc2ccc(Cl)c(Cl)c2)n1`, the TGI in the assay with SK-MEL-5 melanoma, in the assay with NCI-H23 lung, with M14 melanoma, in the assay with NCI-H460 lung and with UACC-62 melanoma was over 100 µM throughout.

In the case of `Fc1cccc(F)c1C1SCc2nc3ccccc3n21` (stereo unspecified), the TGI in the assay on SK-MEL-5 melanoma was 75.4 µM; with NCI-H23 lung, over 100 µM; in the assay on M14 melanoma, over 100 µM; in the assay with NCI-H460 lung it was over 100 µM; in the assay with COLO 205 colon, over 100 µM; in the assay on UACC-62 melanoma, over 100 µM.

`CC1CC2C3CC(F)C4=CC(=O)C=CC4(C)C3(F)C(O)CC2(C)C1(O)C(=O)CO` (stereo unspecified): the TGI with SK-MEL-5 melanoma, in the assay with SR leukemia, in the assay on NCI-H23 lung, in the assay with M14 melanoma, in the assay with NCI-H460 lung and in the assay on COLO 205 colon was over 100 µM in each case. In addition, the TGI in the assay with UACC-62 melanoma was over 100 µM.

On to `COc1cc2c(cc1OC)-c1c(cc(OC)c(OC)c1OC)C2=O`, for which the concentration for total growth inhibition (TGI) in the assay on SK-MEL-5 melanoma, with SR leukemia, in the assay on NCI-H23 lung, in the assay on M14 melanoma, in the assay on NCI-H460 lung and with COLO 205 colon was over 100 µM each time. This molecule also registered a TGI with UACC-62 melanoma of over 100 µM.

`COC(=O)C1CCc2c(OC)ccc(OC)c2C1=O` (stereo unspecified): the TGI with SK-MEL-5 melanoma, with NCI-H23 lung, in the assay on M14 melanoma, with NCI-H460 lung, in the assay with COLO 205 colon and in the assay with UACC-62 melanoma was over 100 µM throughout.

Take `Cc1cccc(NC(=O)CC2C(=O)Nc3ccccc3S2(=O)=O)c1C` (stereo unspecified): the TGI was 74.1 µM in the assay with SK-MEL-5 melanoma; 48 µM with SR leukemia; 33.7 µM in the assay with NCI-H23 lung; over 100 µM with M14 melanoma; 82.4 µM in the assay with NCI-H460 lung; over 100 µM in the assay on COLO 205 colon. The molecule also registered a TGI in the assay with UACC-62 melanoma of 46.3 µM.

Turning to `COC(=O)/C(=C/N1CCN(C(=O)c2ccco2)C1=S)C(C)=O`, the GI50 was 5.26 µM in the assay on SK-MEL-5 melanoma; 12.2 µM in the assay with NCI-H23 lung; 10.7 µM with M14 melanoma; 3.48 µM in the assay on BT-549 breast; 2.19 µM with NCI-H460 lung; 12.6 µM in the assay on COLO 205 colon. Also, the GI50 in the assay on UACC-62 melanoma is 11.5 µM. Besides, the TGI in the assay on SK-MEL-5 melanoma came out at 17.4 µM; with NCI-H23 lung, 31.9 µM; in the assay with M14 melanoma it was 24.4 µM; in the assay on BT-549 breast, 9.03 µM; in the assay with NCI-H460 lung, 5.88 µM; with COLO 205 colon, 35.8 µM. Besides, the concentration for total growth inhibition (TGI) in the assay on UACC-62 melanoma amounted to 28.3 µM.

With `O=C(C#Cc1c[nH]c(=O)[nH]c1=O)c1ccccc1`, the TGI in the assay with SK-MEL-5 melanoma was determined as 25.2 µM; in the assay with NCI-H23 lung, 27.6 µM; in the assay on M14 melanoma it was 18 µM; with NCI-H460 lung, 28.6 µM; in the assay on COLO 205 colon, 19.6 µM; with UACC-62 melanoma, 21.8 µM.

Regarding `Cc1ccccc1NC(=O)C(=O)Cc1nc2ccccc2s1`, the TGI in the assay on SK-MEL-5 melanoma, with SR leukemia, with NCI-H23 lung, in the assay on M14 melanoma, in the assay with NCI-H460 lung and in the assay with COLO 205 colon was over 100 µM in each case.

`O=C(O)/C(O)=C1/C=C(c2ccccc2)c2ccccc21`: the total growth inhibition concentration (TGI) in the assay with SK-MEL-5 melanoma turned out to be 34 µM; with SR leukemia it was 47.1 µM; with M14 melanoma, 45.3 µM; in the assay on NCI-H460 lung, 62.7 µM; in the assay on COLO 205 colon it was 31.9 µM; in the assay on UACC-62 melanoma, 30 µM.

In the case of `Cc1ccc(NC(=O)SCCC(=O)O)cc1NC(=O)SCCC(=O)O`, the TGI is over 100 µM in the assay on SR leukemia; over 100 µM in the assay with NCI-H23 lung; over 100 µM in the assay on M14 melanoma; over 100 µM with NCI-H460 lung; over 10 µM in the assay on COLO 205 colon.

Consider `CC(NC1CCC[C@H]1O)c1ccccc1` (mixture of isomers), for which the TGI with SK-MEL-5 melanoma, in the assay on NCI-H23 lung, in the assay with M14 melanoma, with NCI-H460 lung, in the assay with COLO 205 colon and in the assay on UACC-62 melanoma was over 100 µM in each case.

As for `O=C(NCCNCCO)c1ccc2oc3cc4ccccc4c(=O)n3c2c1`, the GI50 is 9.26 µM in the assay with SK-MEL-5 melanoma; 4.64 µM in the assay on SR leukemia; 9.97 µM in the assay on NCI-H23 lung; 8.6 µM in the assay with M14 melanoma; 12.3 µM in the assay with BT-549 breast; 7.08 µM with NCI-H460 lung. The GI50 is 12 µM in the assay on COLO 205 colon and 7.85 µM in the assay on UACC-62 melanoma. Also, the TGI was 16.4 µM in the assay on SK-MEL-5 melanoma; over 50 µM in the assay with SR leukemia; 23.4 µM in the assay with NCI-H23 lung; 16.7 µM with M14 melanoma; 24.1 µM in the assay on BT-549 breast; 15.4 µM in the assay with NCI-H460 lung. Moreover, the TGI in the assay on COLO 205 colon was over 50 µM; with UACC-62 melanoma, 19 µM.

Consider `C=C(CO)CC(O)c1ccccc1` (stereo unspecified), for which the TGI in the assay on SK-MEL-5 melanoma, in the assay with NCI-H23 lung, with M14 melanoma, with NCI-H460 lung, with COLO 205 colon and in the assay with UACC-62 melanoma was over 100 µM each time.

Turning to `COC1OC(C)C(OC(=O)C(C)(C)C)C(C)(O)C1O` (stereo unspecified), the TGI in the assay with SK-MEL-5 melanoma, in the assay on SR leukemia, with NCI-H23 lung, in the assay with M14 melanoma, in the assay with NCI-H460 lung and in the assay with COLO 205 colon was over 100 µM each time. This molecule also registered a TGI in the assay with UACC-62 melanoma of over 100 µM.

Turning to `C=C(C)C1CC[C@]2(C(=O)O)CCC3(C)[C@H](CCC4[C@@]5(C)CC[C@H](OC6OC(CO)C(O)C6OC6OC(C)C(O)C(O)C6O)[C@@](C)(CO)C5CC[C@]43C)C12` (stereo partly specified), the concentration for total growth inhibition (TGI) in the assay on SK-MEL-5 melanoma, in the assay with SR leukemia, with NCI-H23 lung, in the assay on M14 melanoma, with NCI-H460 lung and in the assay on COLO 205 colon was over 100 µM throughout. Also, the total growth inhibition concentration (TGI) in the assay on UACC-62 melanoma was over 100 µM.

In the case of `CC(=O)O[C@H]1CCC2[C@@H]3CCC4C(=O)c5oncc5C[C@]4(C)C3CC[C@@]21C` (stereo partly specified), the TGI with SK-MEL-5 melanoma, in the assay on NCI-H23 lung, in the assay with M14 melanoma, in the assay with NCI-H460 lung, with COLO 205 colon and in the assay with UACC-62 melanoma was over 100 µM each time.

With `CNC(=O)OCc1nc(S(C)=O)n(C)c1COC(=O)NC` (stereo unspecified), the TGI in the assay with SK-MEL-5 melanoma was over 46.4 µM; in the assay with SR leukemia, over 100 µM; in the assay with NCI-H23 lung, over 100 µM; with M14 melanoma, over 48.3 µM; in the assay on NCI-H460 lung it was over 100 µM; with COLO 205 colon it was over 62.6 µM. The same molecule came in with a TGI in the assay with UACC-62 melanoma of over 65.9 µM.

As for `CSc1s[s+]c(SC)c1[O-]`, the TGI with SK-MEL-5 melanoma was over 100 µM; in the assay with SR leukemia, 37 µM; in the assay with NCI-H23 lung, 50.4 µM; with M14 melanoma, 75.8 µM; in the assay on NCI-H460 lung, over 100 µM; in the assay with COLO 205 colon, 68.8 µM. This molecule showed a TGI with UACC-62 melanoma of 28.2 µM.

On to `COc1ccc(C(=O)C(C(=O)C(=O)Nc2nc3ccc(OC)cc3s2)c2ccc(OC)cc2)cc1` (stereo unspecified), for which the total growth inhibition concentration (TGI) in the assay with SK-MEL-5 melanoma, in the assay with NCI-H23 lung, with M14 melanoma, with NCI-H460 lung, with COLO 205 colon and with UACC-62 melanoma was over 100 µM in each case.

As for `CC1CC(=O)C(C(O)CC2CC(=O)N(c3ccccc3)C(=O)C2)C(C)C1` (stereo unspecified), the TGI with SR leukemia, in the assay with NCI-H23 lung, with M14 melanoma, with NCI-H460 lung, with COLO 205 colon and in the assay on UACC-62 melanoma was over 100 µM each time.

`CC(=O)Nc1ccc(/C=c2\sc3nnc(/C=C/c4ccccc4)n3c2=O)cc1`: the TGI with SK-MEL-5 melanoma, in the assay with NCI-H23 lung, with M14 melanoma, in the assay on NCI-H460 lung, in the assay on COLO 205 colon and with UACC-62 melanoma was over 50 µM in each case.
